# Laboratory results: patent US20260048072A1, “PHARMACEUTICAL PREPARATION FOR INTRANASAL ADMINISTRATION AND PREPARATION METHOD THEREFOR” (CHENGDU EASTON BIOPHARMACEUTICALS CO., LTD., priority 2023, published 2026)
# Experiments:
# Assay type in all cases: in vivo
# Settings in all cases: beagle dogs, nasal spray, result in words
# [1] = Experimental Example 2: pharmacokinetic experiment, nalmefene in plasma by LC-MS/MS
# Source text: Beagle dogs (body weight of 12 kg-15 kg, supplier: Suzhou Xishan Zhongke Experimental Animal Co., Ltd., license number: SCXK(Su)2018-0001)
# • EDTA-K2 anticoagulant tube: brand Kangweishi (KWS) • Liquid chromatograph (Shimadzu, LC-30AD), mass spectrometer (SCIEX Triple Quad 4500) • LC-MS/MS detection conditions: • Instrument: UPLC-MS/MS (AB API 4500) • MS conditions: Electrospray ionization (ESI) source, positive ion detection […]
# Experimental method of nasal administration for Example 1: Four beagle dogs were administered with 1 dose of a nasal spray preparation of nalmefene hydrochloride by nasal spray respectively, and 2 mL of blood was collected from the forelimb vein before administration and at 2 min, 5 min, 10 min, 15 min, 30 min, 45 min, 1 h, 2 h, 4 h and 6 h after administration. […] The content of nalmefene in the plasma was detected by LC-MS/MS. […]
# Experimental method of intramuscular injection for Comparative Example 2: Four beagle dogs were administered 1 dose of an injection of nalmefene hydrochloride (1.5 ml: 1.5 mg) intramuscularly respectively, and 2 mL of blood was collected from the forelimb vein before administration and at 2 min, 5 min, 10 min, 15 min, 30 min, 45 min, 1 h, 2 h, 4 h and 6 h after administration. […] The content of nalmefene in the plasma was detected by LC-MS/MS.
# [2] = Experimental Example 4: pharmacokinetic experiment, nalmefene in plasma by LC-MS/MS
# Source text: Beagle dogs (body weight of 8 kg-10 kg, supplier: Suzhou Xishan Zhongke Experimental Animal Co., Ltd. and Chengdu Dossy Experimental Animal Co., Ltd., license numbers: SCXK(Su)2018-0001 and SCXK(1)2019-031)
# (§1) • EDTA-K2 anticoagulant tube: brand Kangweishi (KWS) • Liquid chromatograph (Shimadzu, LC-30AD), mass spectrometer (SCIEX Triple Quad 4500) • LC-MS/MS detection conditions: • Instrument: UPLC-MS/MS (AB API 4500) • MS conditions: Electrospray ionization (ESI) source, positive ion detection
# (§2) HPLC conditions: mobile phase A: 90% water+10% acetonitrile+0.1% formic acid+2 mM ammonium acetate; mobile phase B: 90% acetonitrile+10% water+0.1% formic acid+2 mM ammonium acetate; chromatographic column: Waters ACQUITY UPLC BEH C18 (2.1×50 mm, 1.7 μm); flow rate: 0.50 mL/min; chromatographic column temperature: 40° C.
# Experimental method of nasal administration for Example 9: Four beagle dogs were administered with 1 dose of a nasal spray preparation of nalmefene hydrochloride by nasal spray respectively, and 2 mL of blood was collected from the forelimb vein before administration and at 2 min, 5 min, 10 min, 15 min, 30 min, 45 min, 1 h, 2 h, 4 h and 6 h after administration. […] The content of nalmefene in the plasma was detected by LC-MS/MS. […]
# [3] = Experimental Example 3: pharmacokinetic experiment, nalmefene in plasma by LC-MS/MS
# Procedure: Beagle dogs (body weight of 8 kg-10 kg, supplier: Chengdu Dossy Experimental Animal Co., Ltd., license number: SCXK(1)2019-031)
# as §1, §2
# Experimental method of nasal administration for Example 3: Four beagle dogs were administered with 1 dose of a nasal spray preparation of nalmefene hydrochloride by nasal spray respectively, and 2 mL of blood was collected from the forelimb vein before administration and at 2 min, 5 min, 10 min, 15 min, 30 min, 45 min, 1 h, 2 h, 4 h and 6 h after administration. The blood sample was placed in an EDTA-K2 anticoagulant tube, centrifuged at 4500 r/min for 10 min, and 50 μL of plasma was separated into a centrifuge tube. […] The content of nalmefene in the plasma was detected by LC-MS/MS. […]
smiles,measurement,setting,value
"CCCCCCCCCCCCOP(=O)([O-])OCC[N+](C)(C)C [dodecylphosphocholine, Dodecylphosphocholine]","absorption of nalmefene hydrochloride in the nasal cavity, compared with not using dodecylphosphocholine",[1],significantly accelerate
same,effect to accelerate the absorption of nalmefene hydrochloride in the nasal cavity compared with n-dodecyl-β-D-maltoside,[2],superior
same,effect to accelerate the absorption of nalmefene hydrochloride in the nasal cavity compared with n-dodecyl-β-D-maltoside,[3],superior
